Key:
[1] = Antiproliferative activity against human foreskin fibroblast after 3 days by methylene blue staining; settings: 72 h
BT-474 = experiment: Antiproliferative activity against human BT474 cells overexpressing ErbB2 after 3 days by methylene blue staining; settings: BT-474, 72 h
[2] = target: Epidermal growth factor receptor (Homo sapiens, UniProt P00533); experiment: Inhibition of EGFR kinase
[3] = target: Receptor tyrosine-protein kinase erbB-2 (Homo sapiens, UniProt P04626)
Description: Inhibition of ErbB2 kinase

HN5 = experiment: Antiproliferative activity against human HN5 cells overexpressing EGFR after 3 days by methylene blue staining; settings: HN5, 72 h
Mus musculus = experiment: Dose normalized AUC in po dosed mouse; format: ADME, organism-based; settings: in vivo

Sequence of Receptor tyrosine-protein kinase erbB-2 (P04626 whole entry): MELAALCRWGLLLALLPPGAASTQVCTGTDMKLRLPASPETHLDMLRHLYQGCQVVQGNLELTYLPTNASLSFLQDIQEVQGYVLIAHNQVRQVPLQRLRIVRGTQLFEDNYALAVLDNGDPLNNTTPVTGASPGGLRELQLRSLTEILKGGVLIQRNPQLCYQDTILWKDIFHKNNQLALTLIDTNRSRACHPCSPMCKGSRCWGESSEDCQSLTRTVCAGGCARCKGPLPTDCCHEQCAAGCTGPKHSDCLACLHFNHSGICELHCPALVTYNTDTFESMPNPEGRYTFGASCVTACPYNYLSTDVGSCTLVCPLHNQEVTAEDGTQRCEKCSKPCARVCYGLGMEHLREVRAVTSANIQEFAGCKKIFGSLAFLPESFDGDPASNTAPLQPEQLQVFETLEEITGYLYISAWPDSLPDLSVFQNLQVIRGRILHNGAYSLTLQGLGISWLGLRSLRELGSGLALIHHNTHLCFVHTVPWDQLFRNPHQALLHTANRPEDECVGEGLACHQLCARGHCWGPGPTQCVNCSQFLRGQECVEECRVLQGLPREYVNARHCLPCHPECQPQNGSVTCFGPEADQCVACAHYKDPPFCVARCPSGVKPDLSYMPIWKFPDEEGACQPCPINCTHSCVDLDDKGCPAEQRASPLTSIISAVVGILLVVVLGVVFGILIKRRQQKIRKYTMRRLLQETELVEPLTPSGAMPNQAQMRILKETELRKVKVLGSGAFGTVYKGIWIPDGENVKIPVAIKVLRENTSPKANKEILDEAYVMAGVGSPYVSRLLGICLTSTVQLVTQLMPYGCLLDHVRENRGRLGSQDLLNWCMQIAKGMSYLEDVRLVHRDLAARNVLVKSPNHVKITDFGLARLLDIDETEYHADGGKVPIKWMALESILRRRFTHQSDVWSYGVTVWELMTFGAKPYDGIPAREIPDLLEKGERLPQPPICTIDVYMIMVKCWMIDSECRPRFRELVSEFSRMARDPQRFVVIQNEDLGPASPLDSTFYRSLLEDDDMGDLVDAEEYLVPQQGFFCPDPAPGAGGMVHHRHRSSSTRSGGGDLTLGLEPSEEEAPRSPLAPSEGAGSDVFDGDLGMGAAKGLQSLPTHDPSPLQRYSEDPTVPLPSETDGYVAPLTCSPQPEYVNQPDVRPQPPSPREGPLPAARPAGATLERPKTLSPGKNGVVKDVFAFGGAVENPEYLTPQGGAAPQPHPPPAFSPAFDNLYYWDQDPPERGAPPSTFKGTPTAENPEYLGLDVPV
Sequence of Epidermal growth factor receptor (P00533 whole entry): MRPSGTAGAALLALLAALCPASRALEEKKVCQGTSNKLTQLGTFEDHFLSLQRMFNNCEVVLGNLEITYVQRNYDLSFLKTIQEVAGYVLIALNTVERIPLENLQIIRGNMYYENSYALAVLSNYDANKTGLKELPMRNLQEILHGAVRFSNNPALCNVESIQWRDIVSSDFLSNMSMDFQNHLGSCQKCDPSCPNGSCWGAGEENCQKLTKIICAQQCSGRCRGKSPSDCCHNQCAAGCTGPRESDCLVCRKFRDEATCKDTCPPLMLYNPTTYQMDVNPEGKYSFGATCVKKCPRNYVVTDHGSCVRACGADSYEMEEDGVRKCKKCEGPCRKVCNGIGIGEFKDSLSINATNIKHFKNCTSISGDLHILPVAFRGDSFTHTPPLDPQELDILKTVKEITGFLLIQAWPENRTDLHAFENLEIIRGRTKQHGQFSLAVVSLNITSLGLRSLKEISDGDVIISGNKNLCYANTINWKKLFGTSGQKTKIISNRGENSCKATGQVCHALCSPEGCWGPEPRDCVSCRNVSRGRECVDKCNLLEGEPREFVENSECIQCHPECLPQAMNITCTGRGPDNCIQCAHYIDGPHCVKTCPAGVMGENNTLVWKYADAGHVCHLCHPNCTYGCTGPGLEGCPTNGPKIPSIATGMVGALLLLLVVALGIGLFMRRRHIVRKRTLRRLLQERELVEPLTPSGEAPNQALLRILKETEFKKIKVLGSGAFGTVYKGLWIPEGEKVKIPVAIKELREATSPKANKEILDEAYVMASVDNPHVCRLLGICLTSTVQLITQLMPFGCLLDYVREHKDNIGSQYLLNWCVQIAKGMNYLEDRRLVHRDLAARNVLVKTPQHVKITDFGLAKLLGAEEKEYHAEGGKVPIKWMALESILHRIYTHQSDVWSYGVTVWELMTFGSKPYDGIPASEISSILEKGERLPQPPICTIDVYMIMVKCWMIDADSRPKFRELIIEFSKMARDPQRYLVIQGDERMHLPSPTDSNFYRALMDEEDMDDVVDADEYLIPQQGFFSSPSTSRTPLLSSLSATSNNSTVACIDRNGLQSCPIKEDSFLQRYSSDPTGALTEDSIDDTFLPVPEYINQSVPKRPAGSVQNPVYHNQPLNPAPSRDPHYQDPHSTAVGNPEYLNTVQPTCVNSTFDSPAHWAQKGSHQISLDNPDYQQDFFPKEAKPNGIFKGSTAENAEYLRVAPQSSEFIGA

## Fc1cccc(COc2ccc(Nc3ncnc4cc(C#C[C@@H]5CCCN5)sc34)cc2Cl)c1
[1]
  IC50: > 1000 nM
BT-474
  IC50: 205 nM
[2]
  IC50: 109 nM
[3]
  IC50: 54 nM
HN5
  IC50: 536 nM

## CCC(=O)O[C@H]1CN[C@H](C#Cc2cc3ncnc(Nc4ccc(OCc5cccc(F)c5)c(Cl)c4)c3s2)C1
[1]
  IC50: > 1000 nM
BT-474
  IC50: 18 nM
[2]
  IC50: 63 nM
[3]
  IC50: 90 nM
HN5
  IC50: 52 nM

## CNC(=O)O[C@H]1CN[C@H](C#Cc2cc3ncnc(Nc4ccc(OCc5cccc(F)c5)c(Cl)c4)c3s2)C1
[1]
  IC50: > 1000 nM
BT-474
  IC50: 28 nM
[2]
  IC50: 50 nM
[3]
  IC50: 20 nM
HN5
  IC50: 58 nM
Mus musculus
  AUC: 18 ng·kg·h/mg/mL

## CS(=O)(=O)N1CCC[C@@H]1C#Cc1cc2ncnc(Nc3ccc(OCc4cccc(F)c4)c(Cl)c3)c2s1
[1]
  IC50: > 1000 nM
BT-474
  IC50: 650 nM
[2]
  IC50: 120 nM
[3]
  IC50: 88 nM
HN5
  IC50: 550 nM

## CN(C)C(=O)O[C@H]1CN[C@H](C#Cc2cc3ncnc(Nc4ccc(OCc5cccc(F)c5)c(Cl)c4)c3s2)C1 [GSK-182497A]
[1]
  IC50: > 1000 nM
BT-474
  IC50: 30 nM

## CCOC(=O)N[C@H]1CN[C@H](C#Cc2cc3ncnc(Nc4ccc(OCc5cccc(F)c5)c(Cl)c4)c3s2)C1
[1]
  IC50: > 1000 nM
BT-474
  IC50: 40 nM
[2]
  IC50: 60 nM
[3]
  IC50: 78 nM
HN5
  IC50: 113 nM

## CCOC(=O)O[C@H]1CN[C@H](C#Cc2cc3ncnc(Nc4ccc(OCc5cccc(F)c5)c(Cl)c4)c3s2)C1
[1]
  IC50: > 1000 nM
BT-474
  IC50: 34 nM
[2]
  IC50: 141 nM
[3]
  IC50: 135 nM
HN5
  IC50: 200 nM

## CCS(=O)(=O)N[C@H]1CN[C@H](C#Cc2cc3ncnc(Nc4ccc(OCc5cccc(F)c5)c(Cl)c4)c3s2)C1
[1]
  IC50: > 1000 nM
BT-474
  IC50: 42 nM
[2]
  IC50: 50 nM
HN5
  IC50: 127 nM

## COC(=O)N1CCC[C@@H]1C#Cc1cc2ncnc(Nc3ccc(OCc4cccc(F)c4)c(Cl)c3)c2s1
[1]
  IC50: > 1000 nM
BT-474
  IC50: 1700 nM
[2]
  IC50: 140 nM
[3]
  IC50: 120 nM
HN5
  IC50: 590 nM

## O=C(O[C@H]1CN[C@H](C#Cc2cc3ncnc(Nc4ccc(OCc5cccc(F)c5)c(Cl)c4)c3s2)C1)N1CCOCC1 [GW869810X]
[1]
  IC50: > 1000 nM
BT-474
  IC50: 30 nM

## CCNC(=O)O[C@H]1CN[C@H](C#Cc2cc3ncnc(Nc4ccc(OCc5cccc(F)c5)c(Cl)c4)c3s2)C1 [GSK-192082A]
[1]
  IC50: > 1000 nM
BT-474
  IC50: 30 nM
[2]
  IC50: 32 nM
HN5
  IC50: 95 nM
Mus musculus
  AUC: 61 ng·kg·h/mg/mL

## Fc1cccc(COc2ccc(Nc3ncnc4cc(C#C[C@H]5CCCN5)sc34)cc2Cl)c1
[1]
  IC50: > 1000 nM
BT-474
  IC50: 94 nM
HN5
  IC50: 238 nM

## CS(=O)(=O)O[C@H]1CN[C@H](C#Cc2cc3ncnc(Nc4ccc(OCc5cccc(F)c5)c(Cl)c4)c3s2)C1
[1]
  IC50: > 1000 nM
BT-474
  IC50: 86 nM
[2]
  IC50: 81 nM
[3]
  IC50: 40 nM
HN5
  IC50: 380 nM

## O[C@H]1CN[C@H](C#Cc2cc3ncnc(Nc4ccc(OCc5cccc(F)c5)c(Cl)c4)c3s2)C1
[1]
  IC50: > 1000 nM
BT-474
  IC50: 39 nM
[3]
  IC50: 11 nM
Mus musculus
  AUC: 9 ng·kg·h/mg/mL

## CCO[C@H]1CN[C@H](C#Cc2cc3ncnc(Nc4ccc(OCc5cccc(F)c5)c(Cl)c4)c3s2)C1
[1]
  IC50: > 1000 nM
BT-474
  IC50: 45 nM
[2]
  IC50: 115 nM
[3]
  IC50: 98 nM
HN5
  IC50: 99 nM

## CC(=O)N1CCC[C@@H]1C#Cc1cc2ncnc(Nc3ccc(OCc4cccc(F)c4)c(Cl)c3)c2s1
[1]
  IC50: > 1000 nM
BT-474
  IC50: 670 nM
[2]
  IC50: 58 nM
[3]
  IC50: 38 nM
HN5
  IC50: 37 nM

## COCCN1CCC[C@@H]1C#Cc1cc2ncnc(Nc3ccc(OCc4cccc(F)c4)c(Cl)c3)c2s1
[1]
  IC50: > 1000 nM
[2]
  IC50: 130 nM
HN5
  IC50: 190 nM

Source: ChEMBL document CHEMBL1143444, “Dual EGFR/ErbB-2 inhibitors from novel pyrrolidinyl-acetylenic thieno[3,2-d]pyrimidines” (Bioorg Med Chem Lett, 2008)
